We go through three molecules from US8697659B2, “Analogues of glycolipids useful as immunoadjuvants” (Luigi Panza, priority 2007, dated 2014).

The subject of data set [1] is mouse T cell hybridomas FF13. As to the kind of experiment: IL-2 secretion by recognition of glycolipids by a murine NKT cell line (FF13 hybridoma, THP1 hCD1d as APC, ELISA). It is filed as cell-based. As to conditions: at 10 micromolar; CD1d-transfected THP-1 cells exposed two hours to test compound; IL-2 in medium determined 48 hrs later. As for the experimental part:
As a measure of T cell activation, IL2 release into the culture medium was determined after 48 hours culture by an ELISA assay. […] The x-axis is amount of glycolipid in μg/ml.
The biological evaluation of compounds of the invention uses mouse Vα14i NKT cells immortalized by cell fusion to give hybridomas FF13 through the presentation by APC (THP1). As a measure of T cell activation, IL2 release into the culture medium was determined after 48 hours culture by an ELISA assay. […]
100 μl FF13 in complete medium were added (10×10^4 per well) and after 48 hours the tests were evaluated for IL2 production.
IL2 concentration is evaluated by ELISA using a primary monoclonal Anti-mouse IL-2 Antibody (R&D System), a biotinylated detection anti-mouse IL-2 Antibody (R&D System) and as color developer SIGMA FAST OPD. […]
FIG. 2 depicts the IL2 levels released by cells that had been treated with compounds 13-16, compared to the effect of alpha-GalCer itself, in an NKT cell hybridoma test. The a-GalCer specific NKT hybridoma cells were added to CD1d-transfected THP-1 cells that had been exposed for two hours to various doses of the test compound (about 0.1 to about 10 μg/mL), and IL-2 levels in the medium were determined 48 hrs later.

Another data set can be described thus: Solubility in water. Format: physicochemical. As for the experimental part:
In some embodiments, the compounds of the invention have a solubility of at least about 0.5 mg/mL, 1 mg/mL, 2 mg/mL, 5 mg/mL, 7.5 mg/mL, 10 mg/mL, 12.5 mg/mL, 15 mg/mL, 17.5 mg/mL, 20 mg/mL, 25 mg/mL, 30 mg/mL, 40 mg/mL, 50 mg/mL, 75 mg/mL, 100 mg/mL, 150 mg/mL or 200 mg/mL in an aqueous solution.

Take `CCCCCCCCCCCCCCCCCCCCCCCCCC(=O)N[C@@H](COC1OC(CO)C(O)C(O)C1O)[C@H](O)[C@H](O)COCCOCCCC` (stereo partly drawn) [Compound 13, (2S,3S,4R)-5-O-(2-butoxyetil)-2-(N-exacosanoylamino)-1-O-(α-D-galactopyranosyl)-1,3,4,5-pentanetetraol]: the “IL2 levels released, compared to the effect of alpha-GalCer” value in data set [1] is recorded as “as effective as a-GalCer”.

Take `CCCCCCCCCCCCCCCCCCCCCCCCCC(=O)N[C@@H](CO[C@H]1OC(CO)[C@H](O)C(O)C1O)[C@H](O)[C@H](O)COCCCc1ccccc1` (stereo partly drawn) [Compound 15]: in the data set “Solubility in water”, the solubility in water result is given as “soluble in water”.

`CCCCCCCCCCCCCCCCCCCCCCCCCC(=O)N[C@@H](CO[C@H]1OC(CO)[C@H](O)C(O)C1O)[C@H](O)[C@H](O)COCCCc1ccccc1` (stereo partly drawn) [Compound 16]: the “IL2 levels released, compared to the effect of alpha-GalCer” value in data set [1] is recorded as “as effective as a-GalCer”.
